From paper PMC5052702 (Nature Communications, 2016) come the findings set out here.

The target of one experiment is T1, CVB3 3C protease (Coxsackievirus B3, UniProt P03313).
T1 construct: 3C protease of Coxsackie virus B3 consisting of 183 amino-acid residues; made in house; host or cells: E. coli BL21(DE3), plasmid pET-23a(+)
The experiment is described as follows: FRET-based enzyme activity assay (warhead activation / inhibitor kinetics). The class given is biochemical, Coxsackie virus B3. To be noted: for kinact/KI: relative inactivation rate, slope of kobs against inhibitor concentration; for IC50: read-out: IC50. The procedure: The activity of the protease was measured by hydrolysis of the FRET-substrate N-Dabcyl-KTLEALFQ↓GPPVYE(Edans)-NH2. The peptide was purchased from Biosyntan (Berlin, Germany). Samples were irradiated with light with a wavelength of 355 nm and the emitted light at 538 nm was measured in relative fluorescence units (RFUs). An amount of 100 pmol of cleaved substrate equals 5,000 RFU.
Assay samples contained 10 μl of a 100 mM HEPES-NaOH buffer solution pH 7.5/1 mM EDTA, 10 μl enzyme solution (2 μM CVB3 3C^Pro), 10 μl of 10 μM substrate solution (both dissolved in the above buffer) and 1 μl Inhibitor and/or fragment dissolved in DMSO. For assay results of a dilution series of a mixture of 1 and 2 and comparison of reaction products in dependence of the assay solvent, see Supplementary Figs 1 and 2.
The screening procedure consisted of the following steps: 10 μl 100 mM HEPES-NaOH buffer solution pH 7.5/1 mM EDTA was placed in a cavity of the 384-well plate (polystyrene, Corning 3544). Then 10 μl of enzyme solution (40 μM CVB3 3C protease in 100 mM HEPES-NaOH buffer solution, pH 7.5/1 mM EDTA) was added and the plate was shaken for 2 min at 1,400 r.p.m. Afterwards, 0.5 μl of a DMSO solution of the electrophilic probe and 0.5 μl of a DMSO solution of the nucleophile was added, followed by 10 μl of substrate solution (10 μM in 100 mM HEPES-NaOH buffer solution, pH 7.5/1 mM EDTA). The plate was shaken again for 2 min at 1,400 r.p.m. and the generated fluorescence signal was measured with a Safire II Fluorimeter from Tecan. The electrophilic probe 1 was used at a concentration of 400 μM for the screening, which lowered the protease activity by 10–20%. Eight-hundred fifty primary amines were tested at a concentration of 320 μM and fragment 2 amplified the inhibitory activity of 1 most potently. Positive control samples contained only DMSO instead of the probe or the nucleophile. Negative control samples contained no active enzyme. An interfering fluorescent effect has not been observed.
When determining the inhibitory parameters of an inhibitor, the assay set-up was as mentioned but 1 μl DMSO solution of inhibitor was used instead of probe or nucleophile. Different concentrations of inhibitor were tested at least as duplicates and the pseudo-first-order association kinetics (kobs) were determined using GraphPad Prism. The slope of a plot of the different kobs values against the inhibitor concentration yielded kinact/KI.

The target of a further experiment is T2, AiV-1 3C protease (Aichi virus, UniProt O91464).
T2 construct: a panel of six additional rhinoviral and enteroviral 3C proteases; purchased European Virus Archive
In words: In vitro proteolytic activity assay (HPLC, 3 h incubation). The class given is biochemical, Aichi virus 1. The procedure:
(§1) For 12 and 14, the inhibitory activity decreased for EV-B93>PSV-1>ERBV-1>AiV-1>EV-D68>HRV-A49.
(§2) A volume of 100 μl of reaction mixture containing 1.9 μM 3C protease, 25 μM substrate peptide, 5% DMSO, buffer (30 mM Tris pH 8.0, and 50 mM NaCl or 50 mM HEPES pH 7.4 and 50 mM NaCl) and (optionally) different concentrations of inhibitor was incubated in 37 °C during 3 h. The reaction was quenched by addition of 0.5% (final concentration) TFA. Samples were analysed by HPLC on SOURCE 15RPC ST 4.6/100 column using: 2–90% linear gradient of ACN in 0.1% TFA. The 3C protease activity in the absence of inhibitor was defined as 100%. The following peptides (GL Biochem, Shanghai, China) were dissolved in DMSO at a concentration of 5 mM and used for testing 3C proteases activity (Table 3).

The target of the next experiment is T3, Human Caspase-3 (Homo sapiens, UniProt P42574).
T3 sequence (P42574 29-175 limits assumed): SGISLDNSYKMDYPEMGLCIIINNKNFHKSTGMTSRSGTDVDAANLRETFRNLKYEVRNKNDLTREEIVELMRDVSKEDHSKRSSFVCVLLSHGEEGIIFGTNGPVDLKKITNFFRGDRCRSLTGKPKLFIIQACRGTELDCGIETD
T3 sequence (P42574 176-277 limits assumed): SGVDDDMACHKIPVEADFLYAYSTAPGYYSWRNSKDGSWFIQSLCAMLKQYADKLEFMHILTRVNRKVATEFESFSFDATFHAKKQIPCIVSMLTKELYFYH
In words: Side reactivity testing against different proteases. It is filed as biochemical. How it is done:
(§3) The four enzymes cover a broad range of S1-preferences, namely for arginine/lysine (trypsin, factor Xa), hydrophobic residues (chymotrypsin) and aspartate (caspase-3).
(§4) Supplementary Table 3. Side reactivity testing of selected compounds against different
(§5) Cpd# Structure Trypsin1) Chymotrypsin2) Human factor Xa3) Human Caspase-34) […]
4) in 50 mM HEPES-NaOH pH 7.5 / 100 mM NaCl / 1 mM EDTA / 0.1% (w/v) CHAPS / 10% (v/v) glycerol /2 mM DTT
with 10 µM acetyl-DEVD-AMC as substrate;

In another experiment the target is T4, CBV 3C protease (Coxsackievirus B3, UniProt P03313).
T4 construct: 3C protease of Coxsackie virus B3 consisting of 183 amino-acid residues; made in house; host or cells: E. coli BL21(DE3), plasmid pET-23a(+)
The experiment is described as follows: In vitro proteolytic activity assay (3 h incubation). It is filed as biochemical, Coxsackie virus B3. To be noted: fixed enzyme concentration. The procedure:
as §2

The test system of another experiment is Trypsin. The experiment is described as follows: Side reactivity testing against different proteases. The class given is biochemical. The note with it: 50 mM MOPS-NaOH pH 8.0 / 154 mM NaCl, 57 µM Boc-LGR-AMC as substrate. The procedure: as §3, §4
Cpd# Structure Trypsin1) Chymotrypsin2) Human factor Xa3) Human Caspase-34)
1) in 50 mM MOPS-NaOH pH 8.0 / 154 mM NaCl with 57 µM tert. butyloxycarbonyl (Boc)-LGR-7-amino-4-
methylcoumarin (AMC) as substrate; […]

A further experiment addresses Human factor Xa (Homo sapiens, UniProt P00742). Described as above. The class given is biochemical. The procedure:
as §3, §4, §5
3) in 50 mM MOPS-NaOH pH 8.0 / 154 mM NaCl with 114 µM Boc-LGR-AMC as substrate; […]

For the next experiment, the target named is EV-B93 3C protease (Enterovirus B93 (species Enterovirus B), UniProt Q5DSM6). In words: In vitro proteolytic activity assay (HPLC, 3 h incubation). It is filed as biochemical, human enterovirus B93. How it is done: as §1, §2
In another experiment the target is T5, EV-D68 3C protease (Human enterovirus D68, UniProt Q68T42).
T5 construct: a panel of six additional rhinoviral and enteroviral 3C proteases; purchased European Virus Archive
Described as above. It is filed as biochemical. How it is done:
as §1, §2

In the next experiment the target is ERBV-1 3C protease (Equine rhinitis B virus 1, UniProt Q66776). Described as above. It is filed as biochemical. How it is done: as §1, §2
Another experiment has as its target PSV-1 3C protease (Porcine sapelovirus 1, UniProt Q8JJT0). The experiment is described as above. It is filed as biochemical. The procedure: as §1, §2
A further experiment has as its target HRV-A49 3C protease (Rhinovirus A49, UniProt A5GZE5). Described as above. It is filed as biochemical, human rhinovirus A49. How it is done:
as §1, §2

The test system of a further experiment is Chymotrypsin. In words: Side reactivity testing against different proteases. It is filed as biochemical. The procedure:
as §3, §4, §5
2) in 50 mM MOPS-NaOH pH 8.0 / 154 mM NaCl with 1.6 mM AF-AMC as substrate. […]

[1] abbreviates: fixed enzyme concentration, 3 h incubation.
Where [2] appears, read: protein inhibitor stoichiometries of 1:1 and 1:3.

Several values for one entry are separate records, joined by “and”; a condition that tells them apart may be missing. Equal entries are not always repeated. Where two headings read alike, the source gives them in different places. Some results are limits rather than exact numbers.

Chain of Human factor Xa (P00742 235-488 limits assumed): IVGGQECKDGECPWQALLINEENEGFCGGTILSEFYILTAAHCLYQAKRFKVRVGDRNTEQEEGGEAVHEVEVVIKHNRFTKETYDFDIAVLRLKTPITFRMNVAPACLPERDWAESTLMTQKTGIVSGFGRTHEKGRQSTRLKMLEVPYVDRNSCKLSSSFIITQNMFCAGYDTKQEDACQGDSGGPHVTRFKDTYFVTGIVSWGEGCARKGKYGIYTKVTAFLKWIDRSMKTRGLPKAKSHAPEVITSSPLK
Chain of Human factor Xa (P00742 41-179 partner limits assumed): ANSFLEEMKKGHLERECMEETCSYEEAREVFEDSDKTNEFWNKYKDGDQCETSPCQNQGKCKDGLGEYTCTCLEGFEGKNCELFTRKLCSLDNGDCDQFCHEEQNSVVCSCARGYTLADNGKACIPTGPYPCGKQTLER

`CCOC(=O)/C=C/C(=O)c1c(N)n(C2CCCCCC2)[nH]c1=O` [Compound 8]: the kinact/KI at CVB3 3C protease is 132 M⁻¹ s⁻¹ and 131.7 ± 4.2 M⁻¹ s⁻¹.

As for `CCOC(=O)/C=C/C(=O)c1c(N)n(-c2ccccc2)[nH]c1=O` [Compound 10], the kinact/KI on CVB3 3C protease (read-out: kinact/KI) was determined as 14.7 ± 0.9 M⁻¹ s⁻¹.

As to `CCNC(=O)/C=C\C(=O)Nc1cc(=O)[nH]n1C1CCCCCC1` [Compound 14], the IC50 is 9 µM at AiV-1 3C protease (setting [1]); above 500 µM against Human Caspase-3 (50 mM HEPES-NaOH pH 7.5, 10 µM acetyl-DEVD-AMC as substrate); 13 µM on CBV 3C protease; above 500 µM in the experiment on Trypsin; above 500 µM against Human factor Xa (50 mM MOPS-NaOH pH 8.0 / 154 mM NaCl, 114 µM Boc-LGR-AMC as substrate); 4 µM at EV-B93 3C protease (setting [1]). Besides, the IC50 on EV-D68 3C protease (fixed enzyme concentration, 3 h incubation, read-out: IC50 HEV-D68) is above 20 µM; on ERBV-1 3C protease (setting [1]), above 10 µM; against PSV-1 3C protease (setting [1]), 8 µM; against HRV-A49 3C protease (setting [1]), above 20 µM; with Chymotrypsin (50 mM MOPS-NaOH pH 8.0 / 154 mM NaCl, 1.6 mM AF-AMC as substrate) it was above 500 µM. Besides, the “activity against caspase-3, in words” value on Human Caspase-3 (at concentrations of 100 μM) is “inactive”. Besides, the “fold reduction of inactivation rate relative to ethyl ester 12” value on CVB3 3C protease amounted to 10 fold. Further, the kinact/KI was determined as 63.1 ± 3.1 M⁻¹ s⁻¹ at CVB3 3C protease and 63 M⁻¹ s⁻¹ at CVB3 3C protease (read-out: kinact/KI). In addition, the “activity against factor Xa, in words” value on Human factor Xa (at concentrations of 100 μM) is “inactive”. Moreover, at EV-B93 3C protease (one inhibitor equivalent), the “inhibition of the enzyme” value is on record as “fully inhibited”. For the same molecule, in the experiment on Chymotrypsin (at concentrations of 100 μM), the “activity against chymotrypsin, in words” value is “inactive”.

In the case of `CCNC(=O)/C=C\C(=O)NCC` [Compound 15], the “inhibition of the protease, in words” value against CVB3 3C protease was “fully inactive”.

As for `CCOC(=O)/C=C/Cc1c(N)n(C2CCCCCC2)[nH]c1=O` [Compound 7], on CVB3 3C protease, the kinact/KI is 0.4 M⁻¹ s⁻¹ and 0.42 ± 0.01 M⁻¹ s⁻¹.

As to `CCOC(=O)/C=C\C(=O)Nc1cc(=O)[nH][nH]1` [Compound 18], on CVB3 3C protease (read-out: kinact/KI), the kinact/KI was found to be 11.7 ± 0.5 M⁻¹ s⁻¹.

As for `O=C(NCc1cccc2ccccc12)[C@H]1O[C@@H]1C(=O)Nc1cc(=O)[nH]n1C1CCCCCC1` [Compound 6], on CVB3 3C protease, the “inhibition of the protease, in words” value is “inactive”.

`CCOC(=O)[C@H]1O[C@H]1C(=O)Nc1cc(=O)[nH]n1C1CCCCCC1` [Compound 5]: the “inhibition of the protease, in words” value on CVB3 3C protease was “inactive”.

As to `CCOC(=O)[C@H]1O[C@@H]1Cc1c(N)n(C2CCCCCC2)[nH]c1=O` [Compound 3], the kinact/KI at CVB3 3C protease (read-out: kinact/KI) turned out to be 3.7 ± 0.2 M⁻¹ s⁻¹.

For the molecule `CCOC(=O)/C=C\C(=O)Nc1cc(=O)[nH]n1C1CCCCCC1` [Compound 12], the “reduction of protease activity” value at AiV-1 3C protease (setting [2]), on EV-B93 3C protease (setting [2]), on EV-D68 3C protease (setting [2]), on ERBV-1 3C protease (setting [2]), on PSV-1 3C protease (setting [2]) and at HRV-A49 3C protease (setting [2]) was “strongly reduced the activity” each time. Moreover, the kinact/KI on CVB3 3C protease was 606 M⁻¹ s⁻¹ and 606.4 ± 24.9 M⁻¹ s⁻¹.

Consider `CC(C)n1[nH]c(=O)cc1NC(=O)/C=C/S(=O)(=O)c1ccccc1` [Compound 21], for which the kinact/KI on CVB3 3C protease (read-out: kinact/KI) was found to be 542 ± 6.3 M⁻¹ s⁻¹.

As for `CCOC(=O)[C@H]1O[C@@H]1C(=O)Nc1cc(=O)[nH]n1C1CCCCCC1` [Compound 4], at CVB3 3C protease, the “inhibition of the protease, in words” value was “reversible inhibitor” and the IC50 was 142 ± 5.6 µM.

Regarding `CCCC(CCC)n1[nH]c(=O)cc1NC(=O)/C=C\C(=O)OCC` [Compound 17], the kinact/KI at CVB3 3C protease (read-out: kinact/KI) came to 217 ± 30.7 M⁻¹ s⁻¹.

For `Nc1cc(=O)[nH]n1C1CCCCCC1` [Compound 2, 5-amino-1-cycloheptyl-1,2-dihydropyrazol-3-one], the “inhibition of the protease, in words” value at CVB3 3C protease is “virtually inactive”. Also, the “reduction of the enzyme's activity (inhibition)” value at CVB3 3C protease (fragments alone or combined at the same concentrations, ligation assay) is “no more than 10%”.

Take `CCOC(=O)/C=C\C(N)=O` [Compound 13]: at CVB3 3C protease, the kinact/KI is 34 M⁻¹ s⁻¹ and 34.7 ± 1.5 M⁻¹ s⁻¹.

Consider `CCOC(=O)/C=C/C(=O)Oc1cc(N)n(C2CCCCCC2)n1` [Compound 11], for which the half-maximal inhibitory concentration (IC50) on CVB3 3C protease was 20.2 ± 1.6 µM.

Consider `CCOC(=O)/C=C/C(=O)Nc1cc(=O)[nH]n1C1CCCCCC1` [Compound 9], for which the “inhibition of the protease, in words” value on CVB3 3C protease was “inactive”.

By IC50 is commonly meant the concentration needed to halve the response being measured.
